Molecules are shown by their SMILES. pIC50: −log10 of the molar value.

For the assay, the target named is T1, human CRTH2 (Homo sapiens, UniProt Q9Y5Y4).
T1 construct: expressed in transfected cells
T1 sequence (Q9Y5Y4 1-395): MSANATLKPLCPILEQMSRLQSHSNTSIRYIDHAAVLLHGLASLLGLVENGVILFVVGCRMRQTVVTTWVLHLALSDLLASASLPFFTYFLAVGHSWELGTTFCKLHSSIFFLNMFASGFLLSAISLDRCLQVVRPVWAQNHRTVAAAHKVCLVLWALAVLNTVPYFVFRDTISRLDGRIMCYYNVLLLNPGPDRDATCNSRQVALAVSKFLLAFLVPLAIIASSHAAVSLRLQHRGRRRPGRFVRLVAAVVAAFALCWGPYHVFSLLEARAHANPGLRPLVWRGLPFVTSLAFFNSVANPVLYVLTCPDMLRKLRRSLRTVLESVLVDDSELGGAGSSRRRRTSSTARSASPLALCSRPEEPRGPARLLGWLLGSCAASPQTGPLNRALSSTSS
Briefly: Human CRTH2 Receptor Binding Assay (whole cell, [3H]ramatroban competition). The following applies: CHO-K1 cells expressing human CRTH2 and G-alpha16; 20 nM [3H]ramatroban; 1 hour, room temperature. From the text:
A whole cell receptor binding assay using [^3H]ramatroban as the competing radioactive ligand was employed to evaluate the compound binding activity to human CRTH2. The radioactive ligand [^3H]ramatroban was synthesized according to Sugimoto et. al. (Eur. J. Pharmacol. 524, 30-37, 2005) to a specific activity of 42 Ci/mmol.
A cell line stably expressing human CRTH2 was established by transfecting CHO-K1 cells with two mammalian expression vectors that harbored human CRTH2 and G-alpha16 cDNAs, respectively, using FuGene® 6 transfection reagent (from Roche). Stable clones expressing CRTH2 were selected by staining each clone with BM16 (BD Pharmingen™ from BD Biosciences, a division of Becton, Dickinson and Company), which is a rat monoclonal antibody to human CRTH2. The cells were maintained as monolayer cultures in Ham's F-12 medium containing 10% fetal bovine serum, 100 units/mL penicillin, 100 μg/mL streptomycin, 2 mM glutamine, 0.5 mg/mL G418 (geneticin) for CRTH2, and 0.2 mg/mL hygromycin-B (for G-alpha 16). For whole cell receptor binding assay, the monolayer cells were rinsed once with PBS (phosphate buffered saline), dissociated using ethylenediaminetetraacetate (Versene™ EDTA Lonza Inc.), and suspended in PBS containing 10 mM MgCl2 and 0.06% BSA (bovine serum albumin) at 1.5×10^6 cells/mL.
The binding reactions (0.2 mL) were performed in 96-well plates at room temperature in PBS containing 1.5×10^5 cells, 10 mM MgCl2, 0.06% BSA, 20 nM [^3H]ramatroban, and test compound at various concentrations. After 1 hour of binding reactions, the cells were harvested on GF™/B filter microplates (microtiter plates with embedded glass fiber from PerkinElmer, Inc.) and washed 5 times with PBS using a Filtermate™ Harvester (a cell harvester that harvests and washes cells from microplates from PerkinElmer, Inc.). The radioactivities bound to the cells were determined using a microplate scintillation counter (TopCount® NXT, from PerkinElmer, Inc.) after adding 50 μL of Microscint™ 20 scintillation fluid (from PerkinElmer, Inc.) to each well of the filter plates. The radioactivity from non-specific binding was determined by replacing compound with 10 μM of 15(R)-15-methyl PGD2 (from Cayman Chemical Company) in the reaction mixtures. The radioactivity bound to the cells in the absence of compound (total binding) was determined by replacing compound with 0.25% of DMSO (dimethyl sulfoxide) in the reaction mixture. Specific binding data were obtained by subtracting the radioactivity of non-specific binding from each binding data.
The IC50 value is defined as the concentration of the tested compound that is required for 50% inhibition of total specific binding. In order to calculate the IC50 value, the percent inhibition data were determined for 7 concentrations for each compound. The percent inhibition for a compound at each concentration was calculated according to the following formula, [1-(specific binding in the presence of compound)/(total specific binding)]x100. The IC50 value was then obtained by fitting the percent inhibition data to a sigmoidal dose-response (4 parameter logistic) model in the XLfit® software Excel add-in program [from ID Business Solutions Ltd., model 205, where F(x)=(A+(B−A)/(1+((C/x)^D)))].
With `O=C(O)Cn1ncc2c1CCC[C@H]2NS(=O)(=O)c1ccc(Oc2ccccc2Cl)cc1Cl` [Example 5-5a, {(R)-4-[2-Chloro-4-(2-chloro-phenoxy)-benzenesulfonylamino]-4,5,6,7-tetrahydro-indazol-1-yl}-acetic acid], the pIC50 (commonly the IC50 on a negative log10 scale, so that one unit is a factor of ten) is 8.16. The figure for `O=C(O)Cn1ncc2c1CCC[C@H]2NS(=O)(=O)c1cc(F)c(Oc2ccc(F)cc2)cc1Cl` [Example 5-6a, {(R)-4-[2-Chloro-5-fluoro-4-(4-fluoro-phenoxy)-benzenesulfonylamino]-4,5,6,7-tetrahydro-indazol-1-yl}-acetic acid] is 7.28. `O=C(O)CCn1ncc2c1CCC[C@H]2NS(=O)(=O)c1ccc(Oc2ccccc2Cl)c(Cl)c1` [Example 5-7a, 3-{(R)-4-[3-Chloro-4-(2-chloro-phenoxy)-benzenesulfonylamino]-4,5,6,7-tetrahydro-indazol-1-yl}-propionic acid] had a pIC50 of 7.28. As for `CN([C@@H]1CCCc2c1cnn2CC(=O)O)S(=O)(=O)c1cnc(Oc2ccc(Cl)cc2)c(Br)c1` [Example 6-1a, ((R)-4-{[5-Bromo-6-(4-chloro-phenoxy)-pyridine-3-sulfonyl]-methyl-amino}-4,5,6,7-tetrahydro-indazol-1-yl)-acetic acid], the negative logarithm of the IC50 (pIC50) was 8.40. `CN([C@@H]1CCCc2c1cnn2CC(=O)O)S(=O)(=O)c1cnc(Oc2ccccc2Cl)c(Br)c1` [Example 6-2a, ((R)-4-{[5-Bromo-6-(2-chloro-phenoxy)-pyridine-3-sulfonyl]-methyl-amino}-4,5,6,7-tetrahydro-indazol-1-yl)-acetic acid]: the negative logarithm of the IC50 (pIC50) was 8.18. Consider `CN([C@@H]1CCCc2c1cnn2CC(=O)O)S(=O)(=O)c1cnc(Oc2cc(Cl)cc(Cl)c2)c(Br)c1` [Example 6-3a, ((R)-4-{[5-Bromo-6-(3,5-dichloro-phenoxy)-pyridine-3-sulfonyl]-methyl-amino}-4,5,6,7-tetrahydro-indazol-1-yl)-acetic acid], for which the pIC50 is 7.58. Compound `CN([C@@H]1CCCc2c1cnn2CC(=O)O)S(=O)(=O)c1cnc(Oc2ccc(Cl)cc2Cl)c(Br)c1` [Example 6-4a, ((R)-4-{[5-Bromo-6-(2,4-dichloro-phenoxy)-pyridine-3-sulfonyl]-methyl-amino}-4,5,6,7-tetrahydro-indazol-1-yl)-acetic acid] gave a negative logarithm of the IC50 (pIC50) of 8.34. The figure for `CN([C@@H]1CCCc2c1cnn2CC(=O)O)S(=O)(=O)c1cnc(Oc2cc(Cl)ccc2Cl)c(Br)c1` [Example 6-5a, ((R)-4-{[5-Bromo-6-(2,5-dichloro-phenoxy)-pyridine-3-sulfonyl]-methyl-amino}-4,5,6,7-tetrahydro-indazol-1-yl)-acetic acid] is 8.31. The figure for `CN([C@@H]1CCCc2c1cnn2CC(=O)O)S(=O)(=O)c1cnc(Oc2ccc(F)cc2Cl)c(Br)c1` [Example 6-6a, ((R)-4-{[5-Bromo-6-(2-chloro-4-fluoro-phenoxy)-pyridine-3-sulfonyl]-methyl-amino}-4,5,6,7-tetrahydro-indazol-1-yl)-acetic acid] is 8.17.

The compound `CN([C@@H]1CCCc2c1cnn2CC(=O)O)S(=O)(=O)c1cnc(Oc2ccc(F)cc2F)c(Br)c1` [Example 6-7a, ((R)-4-{[5-Bromo-6-(2,4-difluoro-phenoxy)-pyridine-3-sulfonyl]-methyl-amino}-4,5,6,7-tetrahydro-indazol-1-yl)-acetic acid] had a pIC50 of 8.21. In the case of `CN([C@@H]1CCCc2c1cnn2CC(=O)O)S(=O)(=O)c1cnc(Oc2cccc(Cl)c2)c(Br)c1` [Example 6-8a, ((R)-4-{[5-Bromo-6-(3-chloro-phenoxy)-pyridine-3-sulfonyl]-methyl-amino}-4,5,6,7-tetrahydro-indazol-1-yl)-acetic acid], the negative-log IC50 (pIC50) is 7.92. Under `CN([C@@H]1CCCc2c1cnn2CC(=O)O)S(=O)(=O)c1cnc(Oc2ccc(Cl)cc2F)c(Br)c1` [Example 6-9a, ((R)-4-{[5-Bromo-6-(4-chloro-2-fluoro-phenoxy)-pyridine-3-sulfonyl]-methyl-amino}-4,5,6,7-tetrahydro-indazol-1-yl)-acetic acid] stands 8.15; under `CN([C@@H]1CCCc2c1cnn2CC(=O)O)S(=O)(=O)c1cnc(Oc2ccc(Cl)c(F)c2)c(Br)c1` [Example 6-10a, ((R)-4-{[5-Bromo-6-(4-chloro-3-fluoro-phenoxy)-pyridine-3-sulfonyl]-methyl-amino}-4,5,6,7-tetrahydro-indazol-1-yl)-acetic acid], 7.73; under `CC(C)c1ccc(Oc2ncc(S(=O)(=O)N(C)[C@@H]3CCCc4c3cnn4CC(=O)O)cc2Br)cc1` [Example 6-11a, ((R)-4-{[5-Bromo-6-(4-isopropyl-phenoxy)-pyridine-3-sulfonyl]-methyl-amino}-4,5,6,7-tetrahydro-indazol-1-yl)-acetic acid], 8.06. Under `CN([C@@H]1CCCc2c1cnn2CC(=O)O)S(=O)(=O)c1cnc(Oc2ccc(F)cc2)c(Br)c1` [Example 6-12a, ((R)-4-{[5-Bromo-6-(4-fluoro-phenoxy)-pyridine-3-sulfonyl]-methyl-amino}-4,5,6,7-tetrahydro-indazol-1-yl)-acetic acid] stands 8.08; under `COc1cc(F)ccc1Oc1ncc(S(=O)(=O)N(C)[C@@H]2CCCc3c2cnn3CC(=O)O)cc1Br` [Example 6-13a, ((R)-4-{[5-Bromo-6-(4-fluoro-2-methoxy-phenoxy)-pyridine-3-sulfonyl]-methyl-amino}-4,5,6,7-tetrahydro-indazol-1-yl)-acetic acid], 8.19; under `CN([C@@H]1CCCc2c1cnn2CC(=O)O)S(=O)(=O)c1cnc(Oc2ccc(C#N)cc2)c(Br)c1` [Example 6-14a, ((R)-4-{[5-Bromo-6-(4-cyano-phenoxy)-pyridine-3-sulfonyl]-methyl-amino}-4,5,6,7-tetrahydro-indazol-1-yl)-acetic acid], 8.09. Compound `CC(C)c1cc(S(=O)(=O)N(C)[C@@H]2CCCc3c2cnn3CC(=O)O)cnc1Oc1ccc(Cl)cc1` [Example 7-1a, ((R)-4-{[6-(4-Chloro-phenoxy)-5-isopropyl-pyridine-3-sulfonyl]-methyl-amino}-4,5,6,7-tetrahydro-indazol-1-yl)-acetic acid] gave a pIC50 of 7.92. As to `CN([C@@H]1CCCc2c1cnn2CC(=O)O)S(=O)(=O)c1cnc(Oc2ccc(Cl)cc2)c(C2(C)CC2)c1` [Example 8-1a, ((R)-4-{[6-(4-Chloro-phenoxy)-5-(1-methyl-cyclopropyl)-pyridine-3-sulfonyl]-methyl-amino}-4,5,6,7-tetrahydro-indazol-1-yl)-acetic acid], the pIC50 was 7.84. The figure for `CN([C@@H]1CCCc2c1cnn2CC(=O)O)S(=O)(=O)c1ccc(Oc2ccccc2Cl)c(Cl)c1` [Example 9-1a, ((R)-4-{[3-Chloro-4-(2-chloro-phenoxy)-benzenesulfonyl]-methyl-amino}-4,5,6,7-tetrahydro-indazol-1-yl)-acetic acid] is 8.26; for `CN([C@@H]1CCCc2c1cnn2CC(=O)O)S(=O)(=O)c1ccc(Oc2cccc(Cl)c2)c(Cl)c1` [Example 9-2a, ((R)-4-{[3-Chloro-4-(3-chloro-phenoxy)-benzenesulfonyl]-methyl-amino}-4,5,6,7-tetrahydro-indazol-1-yl)-acetic acid] it is 7.91; for `CN([C@@H]1CCCc2c1cnn2CC(=O)O)S(=O)(=O)c1ccc(Oc2ccc(Cl)cc2)c(Cl)c1` [Example 9-3a, ((R)-4-{[3-Chloro-4-(4-chloro-phenoxy)-benzenesulfonyl]-methyl-amino}-4,5,6,7-tetrahydro-indazol-1-yl)-acetic acid] it is 7.95.

Source of the values: patent publication US8420675B2, “Aminotetrahydroindazoloacetic acids” (Hoffmann-La Roche Inc., priority 2008, dated 2013).
